A short description of the series: activity coefficient (dimensionless); of the first substance listed, at infinite dilution; xn = mol fraction of the nth substance listed. Particulars: 101.33 kPa, Liquid, Chromatography, x1 = 0.

± gives the expanded uncertainty stated by the source.

Regarding `CCCCCC` [hexane] + C[n+]1ccn(CCO)c1.O=S(=O)([O-])C(F)(F)C(F)(F)C(F)(F)C(F)(F)F, the activity coefficient reads like this: (303 K) 23.5 ± 0.85; (313 K) 17.7 ± 0.64; (323 K) 13.7 ± 0.49; (333 K) 10.6 ± 0.38; (343 K) 8 ± 0.29; (353 K) 6.31 ± 0.23.

With `CO` [methanol] + C[n+]1ccn(CCO)c1.O=S(=O)([O-])C(F)(F)C(F)(F)C(F)(F)C(F)(F)F, the activity coefficient (303 K) came to 1.1 ± 0.08; the activity coefficient (313 K) amounted to 1.02 ± 0.08; the activity coefficient (323 K) came to 0.93 ± 0.08; the activity coefficient (333 K) was found to be 0.9 ± 0.08; the activity coefficient (343 K) came out at 0.87 ± 0.08; the activity coefficient (353 K) amounted to 0.82 ± 0.08.

Regarding `CC1CCCCC1` [methylcyclohexane] + C[n+]1ccn(CCO)c1.O=S(=O)([O-])C(F)(F)C(F)(F)C(F)(F)C(F)(F)F, the activity coefficient by setting is: (303 K) 38.1 ± 1.4; (313 K) 29.7 ± 1.1; (323 K) 24.3 ± 0.88; (333 K) 19 ± 0.69; (343 K) 15.2 ± 0.55; (353 K) 12.3 ± 0.44.

For the compound `CCCCCCCCC` [nonane] + C[n+]1ccn(CCO)c1.O=S(=O)([O-])C(F)(F)C(F)(F)C(F)(F)C(F)(F)F, the activity coefficient is, setting by setting: (303 K) 157 ± 5.7; (313 K) 132 ± 4.8; (323 K) 105 ± 3.8; (333 K) 88 ± 3.2; (343 K) 71 ± 2.6; (353 K) 54.1 ± 2.

Take `C=CCCCCCC` [oct-1-ene] + C[n+]1ccn(CCO)c1.O=S(=O)([O-])C(F)(F)C(F)(F)C(F)(F)C(F)(F)F: the activity coefficient is, setting by setting: (303 K) 53.9 ± 2; (313 K) 45.2 ± 1.6; (323 K) 36.6 ± 1.3; (333 K) 29.5 ± 1.1; (343 K) 24.3 ± 0.88; (353 K) 19.9 ± 0.72.

Turning to `CCCCCCCC` [octane] + C[n+]1ccn(CCO)c1.O=S(=O)([O-])C(F)(F)C(F)(F)C(F)(F)C(F)(F)F, the activity coefficient was determined as 99 ± 3.6 (303 K); 75.8 ± 2.8 (313 K); 61.2 ± 2.2 (323 K); 47.3 ± 1.7 (333 K); 37.1 ± 1.4 (343 K); 28.4 ± 1 (353 K).

For the compound `CCCCC` [pentane] + C[n+]1ccn(CCO)c1.O=S(=O)([O-])C(F)(F)C(F)(F)C(F)(F)C(F)(F)F, the activity coefficient was determined as 9.38 ± 0.34 (303 K); 6.94 ± 0.25 (313 K); 5.46 ± 0.2 (323 K); 4.34 ± 0.16 (333 K); 3.39 ± 0.14 (343 K); 2.75 ± 0.12 (353 K).

As for `CCCO` [propan-1-ol] + C[n+]1ccn(CCO)c1.O=S(=O)([O-])C(F)(F)C(F)(F)C(F)(F)C(F)(F)F, the activity coefficient is, setting by setting: (303 K) 2.22 ± 0.11; (313 K) 2.07 ± 0.1; (323 K) 1.91 ± 0.1; (333 K) 1.81 ± 0.1; (343 K) 1.66 ± 0.09; (353 K) 1.53 ± 0.09.

In the case of `C1CCOC1` [tetrahydrofuran] + C[n+]1ccn(CCO)c1.O=S(=O)([O-])C(F)(F)C(F)(F)C(F)(F)C(F)(F)F, the activity coefficient is, setting by setting: (303 K) 1.73 ± 0.1; (313 K) 1.7 ± 0.09; (323 K) 1.64 ± 0.09; (333 K) 1.59 ± 0.09; (343 K) 1.52 ± 0.09; (353 K) 1.48 ± 0.09.

Take `Cc1ccccc1` [toluene] + C[n+]1ccn(CCO)c1.O=S(=O)([O-])C(F)(F)C(F)(F)C(F)(F)C(F)(F)F: the activity coefficient was 7.4 ± 0.26 (303 K); 6.83 ± 0.24 (313 K); 6.21 ± 0.22 (323 K); 5.44 ± 0.19 (333 K); 4.94 ± 0.18 (343 K); 4.44 ± 0.16 (353 K).

As to `ClC(Cl)Cl` [trichloromethane] + C[n+]1ccn(CCO)c1.O=S(=O)([O-])C(F)(F)C(F)(F)C(F)(F)C(F)(F)F, the activity coefficient (303 K) was 2.27 ± 0.11; the activity coefficient (313 K) was found to be 2.2 ± 0.11; the activity coefficient (323 K) turned out to be 2.11 ± 0.1; the activity coefficient (333 K) came to 2.01 ± 0.1; the activity coefficient (343 K) was determined as 1.91 ± 0.1; the activity coefficient (353 K) was 1.84 ± 0.1.

For the origin of these results see the NIST ThermoML archive (doi:10.1021/acs.jced.8b00080).
